# Test system: memory disruption induced by MK-801 in male Long Evans rats
# Assay: Novel Object Recognition (NOR) test, memory disruption induced by MK-801
# Assay type: in vivo, rat
# Details: any dose tested, oral
# Description: In the present study, a memory saving model was used. MK-801 (Dizocilpine), an uncompetitive antagonist of the NMDA receptor was used to cause deficit of recognition memory. sGC stimulators were evaluated for their efficacy to prevent memory impairment induced by MK-801.
# Adult male Long-Evans rats (275-299 gram at arrival from Envigo, Indianapolis, IN) were used in this study. Rats were placed in the experimental rooms and assigned unique identification numbers (tail marks). Rats were housed 2 per cage in polycarbonate cages with filter tops and acclimated for at least 7 days prior to testing. […]
# NOR test was conducted in an open-field arena (40×40 cm) placed in a sound-attenuated room under dimmed lighting. […] All training and testing trials were video-taped and scored by an observer blind to treatments.
# On Days 1 and 2, rats were allowed to freely explore the arena (no objects inside) for a 5-minute habituation period. […] Each rat was placed in the arena facing the same direction at the same position, and the time spent actively exploring the objects during a 3-minute training period (T1) was recorded. […] Each rat was placed back into the test arena in the presence of one familiar object and one novel object for 5 minutes, and the time spent exploring both objects was recorded. […]
smiles,measurement,value
"Oc1nc(-c2cn3ccnc3c(Cc3cc(F)ccc3F)n2)ncc1F [Compound I-20, 5-fluoro-2-(8-(2,5-difluorobenzyl)imidazo[1,2-a]pyrazin-6-yl)pyrimidin-4-ol]",obvious side effects in NOR study,None of the rats in this study showed obvious side effects

# Reference: patent US20260151391A1, “TREATMENT OF MITOCHONDRIAL DISEASES WITH sGC STIMULATORS” (Tisento Therapeutics Inc., priority 2022, published 2026)
